The record followed here is patent US11530206B2, “Phenylaminopyrimidine amide autophagy inhibitors and methods of use thereof” (Deciphera Pharmaceuticals, LLC, priority 2019, dated 2022).

The assay concerns the target T1, ULK1 kinase (Homo sapiens, UniProt O75385, E37A/K38A).
T1 construct: purchased Beryllium
T1 sequence (O75385 1-283 E37A/K38A): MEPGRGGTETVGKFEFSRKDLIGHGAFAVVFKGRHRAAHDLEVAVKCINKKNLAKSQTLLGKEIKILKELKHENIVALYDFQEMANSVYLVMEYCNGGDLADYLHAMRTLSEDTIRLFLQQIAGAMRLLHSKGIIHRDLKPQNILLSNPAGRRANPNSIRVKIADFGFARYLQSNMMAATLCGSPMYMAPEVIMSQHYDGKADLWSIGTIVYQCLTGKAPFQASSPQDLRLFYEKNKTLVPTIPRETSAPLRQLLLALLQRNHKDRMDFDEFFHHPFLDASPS
The assay can be described thus: Biochemical assay for ULK1.3 (coupled pyruvate kinase/lactate dehydrogenase assay, peptide substrate). Particulars: 0.1 nM ULK1 (residues 1-283), 1 mM ATP. In short, it runs like this: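 ULK1.3 activity was followed by continuous decrease in 340 nm absorbance over 6 h at 30 °C with 1% DMSO final. Rates were taken from the 2–3 h window and converted to percent inhibition against no-compound and known-inhibitor controls. IC50 values came from curve fitting.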
For `CN1CCN(c2ccc(Nc3ncc(C(F)(F)F)c(NCCCN4CCCCC4=O)n3)c(C3CC3)c2)CC1` [Example 14], the 50% inhibitory concentration (IC50) (usually the concentration at which inhibition is half-maximal) fell in the range of 0.001 to 0.025 µM. In the case of `CCc1cc(N2CCN(C)CC2)ccc1Nc1ncc(C(F)(F)F)c(NCCCN2CCCOC2=O)n1` [Example 39] it was 0.001 to 0.025 µM; in that of `CN1CCN(c2ccc(Nc3ncc(C(F)(F)F)c(NCCCN4CCCOC4=O)n3)c(C3CC3)c2)CC1` [Example 41], 0.001 to 0.025 µM; in that of `CCc1cc(N2CCNCC2)ccc1Nc1ncc(C(F)(F)F)c(NCCCN2CCCOC2=O)n1` [Example 46], 0.001 to 0.025 µM. `CN1CCN(c2ccc(Nc3ncc(C(F)(F)F)c(NCCCN4CCCOCC4=O)n3)c(C3CC3)c2)CC1` [Example 52] displayed an IC50 of 0.001 to 0.025 µM. Next, `CN1CCN(c2ccc(Nc3ncc(C(F)(F)F)c(NCCCN4CCOCCC4=O)n3)c(C3CC3)c2)CC1` [Example 70]: 0.001 to 0.025 µM; `CCc1cc(N2CC3CCC(C2)N3C)ccc1Nc1ncc(C(F)(F)F)c(NCCCN2CCOCCC2=O)n1` [Example 74]: 0.001 to 0.025 µM; `CCc1cc(N2CCN(C)CC2)ccc1Nc1ncc(Br)c(NCCCN2CCOCCC2=O)n1` [Example 76]: 0.001 to 0.025 µM.

In turn, `CCc1cc(N2CCNCC2)ccc1Nc1ncc(C(F)(F)F)c(NCCCN2CCOCCC2=O)n1` [Example 84] showed an IC50 of 0.001 to 0.025 µM.

`CCc1cc(N2CCN(C)CC2)c(F)cc1Nc1ncc(C(F)(F)F)c(NCCCN2CCOCCC2=O)n1` [Example 86] came in with an IC50 of 0.025 to 0.1 µM. `O=C1OCCCN1CCCNc1nc(Nc2ccc(N3CCNCC3)cc2C2CC2)ncc1C(F)(F)F` [Example 99] gave an IC50 of 0.001 to 0.025 µM.
